This note sets out measurements from patent US20160015064A1, “COMPOUNDS, COMPOSITIONS, AND METHODS FOR MODULATING SWEET TASTE” (CHROMOCELL CORPORATION, priority 2013, published 2016).

For series [1], the system named is sweetness enhancement effect and off-taste in lemon-lime beverage. Nature of the series: Sensory assessment / informal tasting of solubilized Compound 3 beverages. It is filed as in vivo. Particulars: sucrose co-melt. How it is done:
For example, Compound 3 and polysorbate 80 were accurately weighed into screw-capped glass vials according to Table 9 and heated at 70-90° C. and vortex mixed to facilitate the solubilization. Q-[…]® was added to the 41.5 brix lemon-lime flavored beverage syrup. The polysorbate 80 mixtures were blended into 41.5 brix lemon-lime flavored beverage syrup with Q-[…]® 200 and vortex mixed at 3000 rpm for 75 seconds. The resulting syrups were stored overnight at room temperature. The syrup was then diluted with 5× water to achieve the final 7.7 brix lemon-lime beverage. […] Solution PQ2 was able to maintain clear solution for 1 month.
Because Q-[…]® was able to maintain the stability of the sweet enhancing compounds, it was evaluated in combination with additional solvents. […] In another example, Compound 3, Q-[…]®, and either 1,2-propylene glycol or ethanol 200 proof were accurately weighed into screw-capped glass vials according to Table 10 and heated and vortex mixed to facilitate the solubilization. The resulting solution mixtures were blended into 41.5 brix lemon-lime flavored beverage syrup and vortexed at 3000 rpm for 75 seconds. The resulting syrups were stored overnight at refrigerated temperature and diluted with 5× water to achieve the final 7.7 brix lemon-lime beverage. […]
The ability of sugar to co-melt with compounds of the invention was also evaluated. […]

The nature of series [2]: Beverage emulsion delivery systems, physical stability. In kind it is physicochemical. Particulars: NEOBEE® M-5 oil phase with Q-NATURALE®, no weighting agent. How it is done: Utilizing the triacetin and NEOBEE® M-5 oil solutions described in Example 6, emulsion systems were prepared to develop a clear delivery system. A suitable emulsion system would need to have a particle size of under 100 nanometers. A series of trials were conducted in which the triacetin and NEOBEE® M-5 oil solutions were combined with a variety of matrices including preserved water (i.e., water comprising 500 ppm sodium benzoate, 400 ppm potassium sorbate and 1000 ppm citric acid), Q-[…]®, lecithin, lyso-lecithin, and citrus oil. Pre-homogenization utilizing a Silverson High Shear mixer and final homogenization utilizing a high pressure homogenizer at 20,000 psi (up to 10 passes) only achieved a particle size reduction to 146 nanometers. The emulsions were stable in beverage but were opaque. […] Therefore incorporating the compounds into a cloudy beverage emulsion or homogenizing it into a cloudy citrus (orange juice) product may be beneficial. Without being bound by theory, the opacity of the beverage would, in effect, shield the compound from the detriment of light.
For a standard beverage emulsion, the compounds need to be dissolved in the oil phase of the emulsion. Unfortunately, the compounds were mostly insoluble in citrus oil (orange oil 5×). […]

Series [3] deals with sweetness of orange juice beverage. As to the kind of experiment: Panel sweetness of 75% orange juice with Compound 3 compared to 100% orange juice. In kind it is in vivo. As for the experimental part:
Concentrated citrus juice (e.g., orange juice concentrate and lemon juice concentrate) can be used to emulsify flavor oils directly. Dilutions of the Compound 3 were made by dissolving the compound into NEOBEE® M-5 oil at 20 mg/ml and into triacetin at 40 mg/ml. These dilutions were then added to orange juice concentrate (60 brix and 63 brix) and lemon juice concentrate (400 gpl) to deliver a final concentration of 15-30 ppm Compound 3, and blended with the Silverson High Shear Mixer. The juices were diluted to their single strength levels (or less) for final consumption.
In one example, Compound 3 was dissolved into triacetin at a concentration of 40 mg/ml. The Compound 3-triacetin mixture was added to orange juice concentrate (1+3 throw) and blended using a high shear mixer. The concentrate was then diluted to a 75% juice product (8.85 brix) and compared to single strength orange juice (11.8 brix). The test sample contained Compound 3 at 20 ppm. Other test variables using 1+5 were included in the panel. Tests were performed with just Compound 3 in orange juice at full strength and 75%. Compound 3 was dosed at 20 and 30 ppm, and the resulting solutions were tested at day 1, 7, 14, and 21. N varied between 9 and 14 panelists.

Consider `COc1ccc(C2CC(=O)c3c(O)cccc3O2)cc1O` (single isomer, unassigned) [Compound 3, 5-hydroxy-2-(3-hydroxy-4-methoxyphenyl)chroman-4-one], for which the “Sweetness enhancement effect in final beverage (sensory assessment)” value in series [1] (7.7 brix lemon-lime beverage) was “maintained its sweetness enhancement effect”. Besides, the “Off-taste (informal tasting assay)” value in series [1] (lemon-lime beverage) is given as “perceptible off-taste”. The “Physical stability of emulsion” value in series [2] was “physically stable”. The “Relative Sweetness Compared to Control (100% OJ)” value is listed as “Same as Control” in series [3] (T1: 75% OJ w/20 ppm, Fresh, Day 1 (Fresh)); “added sweetness” in series [3] (T2: 75% OJ w/30 ppm, Aged, Day 21); “Same as Control” in series [3] (T2: 75% OJ w/30 ppm, Fresh, Day 1 (Fresh)).
